Experimental data reported in patent publication EP3889132B1, “MONOACYLGLYCEROL LIPASE (MAGL) INHIBITORS” (Università di Pisa, priority 2020, dated 2021).

What was measured:
[1] = molecular target: T1, recombinant human MAGL enzyme (Homo sapiens, UniProt Q99685); assay: In vitro screening of activity on the recombinant human MAGL enzyme (4-NPA substrate, absorbance 405 nm); format: biochemical; settings: substrate 4-NPA, room temperature, 30 minutes
T1 construct: purchased Cayman Chemical 10007812
T1 sequence (Q99685 1-303): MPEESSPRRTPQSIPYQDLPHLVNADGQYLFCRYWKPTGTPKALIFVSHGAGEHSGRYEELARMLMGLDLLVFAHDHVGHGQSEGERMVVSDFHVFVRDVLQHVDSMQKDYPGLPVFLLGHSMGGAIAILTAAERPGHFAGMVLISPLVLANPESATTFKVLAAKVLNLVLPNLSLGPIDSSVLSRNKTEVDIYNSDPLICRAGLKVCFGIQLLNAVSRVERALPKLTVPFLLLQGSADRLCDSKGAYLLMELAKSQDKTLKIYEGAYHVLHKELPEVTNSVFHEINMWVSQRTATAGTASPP
Protocol: The compound 4-nitrophenyl acetate (4-NPA Merck-Sigma Aldrich, 8430750025) was used as a substrate for the recombinant human MAGL enzyme (Cayman Chemical, 10007812). IC50 values were generated in microplates containing 96 wells. The catalytic reaction was carried out at room temperature, at a final volume of 200 µL in 10 mM Tris buffer at pH 7.2 containing 1 mM EDTA and 0.1 mg/ml BSA. A total of 150 µL of 4-NPA 133.3 µM in ethanol was added to 10 µL of DMSO containing the appropriate amount of compound (500 - 0.00256 µM). The reaction began with the addition of 40 µL of the MAGL enzyme (11 ng/well). […] After the reaction continued for 30 minutes, the absorbance values were then measured using a Victor X3 (PerkinElmer®) microplate reader at a wavelength of 405 nm. Two other analyzes were also performed in parallel: one reaction without compounds and the second containing neither compound nor enzyme. […] The IC50 values were calculated from the experimental data (absorbance) through the construction of dose-response curves.

OVCAR3 = assay: Cell viability assay (CellTiter-Glo) OVCAR3; format: cell-based; settings: Homo sapiens, OVCAR-3; cell viability after 96 hours; read-out: IC50 (µM, mean ± SD) OVCAR3
Protocol: (§1) The following tumor cell lines, MDA-MB-231 (Cell Biolabs AKR-231), HCT116 (ATCC® CCL-247), CAOV3 (ATCC® HTB-75), OVCAR3 (ATCC® HTB-161) and SKOV3 (ATCC® HTB-77) were kept at 37 °C in a humidified atmosphere containing 5% CO2 according to the supplier. Cells (5 x 10^2) were plated in 96-well culture plates. The day after plating, the compounds were dissolved in DMSO and added at different concentrations to the medium (final DMSO concentration < 5%). The compounds were added to the cell culture at a concentration between 200 and 0.02 µM. Cell viability was measured after 96 hours with the CellTiter-Glo® Luminescent Cell Viability Assay kit in accordance with the supplier Promega (G7571) with a Tecan M1000 instrument. IC50 values were calculated from dose-response curves. The means were obtained from the triplicates (Table 2). Table 2. Cell viability inhibition activity (IC50, µM) of compound 15.

CAOV3 = assay: Cell viability assay (CellTiter-Glo) CAOV3; format: cell-based; settings: Homo sapiens, Caov-3; cell viability after 96 hours; read-out: IC50 (µM, mean ± SD) CAOV3
Protocol: as §1

SKOV3 = assay: Cell viability assay (CellTiter-Glo) SKOV3; format: cell-based; settings: Homo sapiens, SK-OV-3; cell viability after 96 hours; read-out: IC50 (µM, mean ± SD) SKOV3
Protocol: as §1

[2] = molecular target: T1, recombinant human MAGL enzyme; assay: MAGL dilution assay with the recombinant human MAGL enzyme; format: biochemical; settings: 20 µM vs 40X dilution (final 0.5 µM) vs 0.5 µM (Fig. 3)
Protocol: […] The mixture containing the inhibitor and the enzyme was then diluted 40 times with the buffer solution. After 15 minutes of incubation, the reaction was started in a 160 µL aliquot with the addition of 40 µL of 4-NPA 500 µM in buffer and the enzyme activity was measured according to the procedure described above.
The % of inhibition of the MAGL enzyme was calculated from the measured absorbance. The absorbance measured in the presence of only enzyme with vehicle and without compound was considered as absence of inhibition (positive control), while the absorbance measured in the wells with only vehicle without enzyme and without compound was considered as 100% inhibition (negative control). Intermediate absorbance values with respect to these two extremes indicate enzymatic inhibition and are calculated as the difference between the absorbance value in the well with the compound and the absorbance value of the negative control, all scaled as a percentage considering as the maximum value the negative control and minimum value of minimum inhibition the positive control.
In dilution experiments, if compound 15 were an irreversible inhibitor, its inhibitory potency should not decrease upon dilution.

MDA-MB-231 = assay: Cell viability assay (CellTiter-Glo) MDA-MB-231; format: cell-based; settings: Homo sapiens, cell viability after 96 hours, read-out: IC50 (µM, mean ± SD) MDA-MB-231
Protocol: as §1

HCT116 = assay: Cell viability assay (CellTiter-Glo) HCT116; format: cell-based; settings: Homo sapiens, HCT-116; cell viability after 96 hours; read-out: IC50 (µM, mean ± SD) HCT116
Protocol: as §1

[3] = molecular target: T1, recombinant human MAGL enzyme; assay: Enzymatic kinetics experiments with scalar concentrations of 4-NPA (Michaelis-Menten, mixed-model inhibition fit); format: biochemical; settings: compound 1-0.125 µM, 4-NPA 15-1400 µM
Protocol: In enzymatic kinetics experiments, compound 15 was tested in the presence of scalar concentrations of […]. It was added in staggered amounts (concentration range = 1-0.125 µM in DMSO) to a reaction mix containing staggered concentrations of 4-NPA (15-1400 µM in ethanol). Finally, the buffer solution containing the recombinant human MAGL enzyme (11 ng/well) was added. The enzymatic activity was measured at room temperature by recording the increase in absorbance corresponding to the increase in the concentration of […] using a Victor X3 microplate reader (PerkinElmer®). The absorbance was converted into enzymatic rate by making appropriate use of positive and negative controls. The experimental data were analyzed by […] regression analysis applying the inhibition fit of the mixed model (Fig. 1).

SMILES	IC50 [1]	further results
CCCCCCCCC(=O)Nc1cc(-c2ccc(O)c(F)c2)ccc1O [Compound 5, N-(3'-Fluoro-4,4'-dihydroxy-[1,1'-biphenyl]-3-yl)nonanamide]	2.9 ± 0.1 µM	–
CCCCCCCCCCCCCCCC(=O)Nc1cc(-c2ccc(O)c(F)c2)ccc1O [Compound 9, N-(3'-Fluoro-4,4'-dihydroxy-[1,1'-biphenyl]-3-yl)palmitamide]	> 20 µM	–
CCCCCCCCCCCC(=O)Nc1cc(-c2ccc(O)c(F)c2)ccc1O [Compound 7, N-(3'-Fluoro-4,4'-dihydroxy-[1,1'-biphenyl]-3-yl)dodecanamide]	2.8 ± 0.3 µM	–
O=C(Nc1cc(-c2ccc(O)c(F)c2)ccc1O)c1ccccc1 [Compound 12, N-(3'-Fluoro-4,4'-dihydroxy-[1,1'-biphenyl]-3-yl)benzamide]	6.9 ± 0.4 µM	–
CCCCC(=O)Nc1cc(-c2ccc(O)c(F)c2)ccc1O [Compound 1, N-(3'-Fluoro-4,4'-dihydroxy-[1,1'-biphenyl]-3-yl)pentanamide]	7.6 ± 0.1 µM	–
CC(C)C(=O)Nc1cc(-c2ccc(O)c(F)c2)ccc1O [Compound 10, N-(3'-Fluoro-4,4'-dihydroxy-[1,1'-biphenyl]-3-yl)isobutyramide]	19.7 ± 1 µM	–
O=C(Cc1ccccc1)Nc1cc(-c2ccc(O)c(F)c2)ccc1O [Compound 13, N-(3'-Fluoro-4,4'-dihydroxy-[1,1'-biphenyl]-3-yl)-2-phenylacetamide]	5.1 ± 0.5 µM	–
CCCCCC(=O)Nc1cc(-c2ccc(O)c(F)c2)ccc1O [Compound 2, N-(3'-Fluoro-4,4'-dihydroxy-[1,1'-biphenyl]-3-yl)hexanamide]	3.2 ± 0.2 µM	–
CC(C)(C)C(=O)Nc1cc(-c2ccc(O)c(F)c2)ccc1O [Compound 11, N-(3'-Fluoro-4,4'-dihydroxy-[1,1'-biphenyl]-3-yl)pivalamide]	> 20 µM	–

The next compounds have a lower IC50 [1] than those just listed; values first:

IC50 [1]	SMILES	further results
0.61 ± 0.03 µM	CCCCCCCC(=O)Nc1cc(-c2ccc(O)c(F)c2)ccc1O [Compound 4, N-(3'-Fluoro-4,4'-dihydroxy-[1,1'-biphenyl]-3-yl)octanamide]	–
1.1 ± 0.1 µM	CCCCCCC(=O)Nc1cc(-c2ccc(O)c(F)c2)ccc1O [Compound 3, N-(3'-Fluoro-4,4'-dihydroxy-[1,1'-biphenyl]-3-yl)eptanamide]	–
0.34 ± 0.01 µM	O=C(CCCc1ccccc1)Nc1cc(-c2ccc(O)c(F)c2)ccc1O [Compound 15, N-(3'-Fluoro-4,4'-dihydroxy-[1,1'-biphenyl]-3-yl)-4-phenylbutanamide]	IC50 (OVCAR3): 75 ± 4 µM; IC50 (CAOV3): 34 ± 4 µM; IC50 (SKOV3): 16 ± 2 µM; Inhibition mechanism from percentage of inhibition after 40X dilution [2]: reversible inhibition; IC50 (MDA-MB-231): 75 ± 6 µM; IC50 (HCT116): 14 ± 2 µM; Ki [3]: 0.146 µM
1.1 ± 0.1 µM	O=C(CCCCc1ccccc1)Nc1cc(-c2ccc(O)c(F)c2)ccc1O [Compound 16, N-(3'-Fluoro-4,4'-dihydroxy-[1,1'-biphenyl]-3-yl)-5-phenylpentanamide]	–
2.5 ± 0.4 µM	CCCCCCCCCCCCCC(=O)Nc1cc(-c2ccc(O)c(F)c2)ccc1O [Compound 8, N-(3'-Fluoro-4,4'-dihydroxy-[1,1'-biphenyl]-3-yl)tetradecanamide]	–
1.9 ± 0.1 µM	O=C(Cc1cccc2ccccc12)Nc1cc(-c2ccc(O)c(F)c2)ccc1O [Compound 17, N-(3'-Fluoro-4,4'-dihydroxy-[1,1'-biphenyl]-3-yl)-2-(naphtalen-1-yl)acetamide]	–
2 ± 0.1 µM	O=C(CCc1ccccc1)Nc1cc(-c2ccc(O)c(F)c2)ccc1O [Compound 14, N-(3'-Fluoro-4,4'-dihydroxy-[1,1'-biphenyl]-3-yl)-3-phenylpropanamide]	–
1.1 ± 0.1 µM	CCCCCCCCCC(=O)Nc1cc(-c2ccc(O)c(F)c2)ccc1O [Compound 6, N-(3'-Fluoro-4,4'-dihydroxy-[1,1'-biphenyl]-3-yl)decanamide]	–
